For one experiment, the system named is Staphylococcus aureus. In words: Antibacterial activity against Staphylococcus aureus USA300 LAC assessed as bacterial growth inhibition incubated for 24 hrs by microdilution assay. The class given is functional, organism-based. On the technique in general: Dilution methods test growth across graded concentrations, often in twofold steps.
For a further experiment, the system named is Streptococcus pyogenes. In words: Antibacterial activity against Streptococcus pyogenes ATCC 12344 assessed as bacterial growth inhibition incubated for 24 hrs by microdilution assay. The class given is functional.
Experiment [1] deals with HCT-116. Nature of the experiment: Cytotoxicity against human HCT-116 cells harboring wild type p53 assessed as inhibition of cell proliferation incubated for 72 hrs by MTT assay. Format: functional, cell-based. Particulars: for IC50: HCT-116, 72 h.
In experiment [2] the test system is HCT-116. In words: Cytotoxicity against human HCT-116 cells harboring p53-/- assessed as inhibition of cell proliferation incubated for 72 hrs by MTT assay. Format: functional, cell-based.
The subject of another experiment is HL-60. Nature of the experiment: Cytotoxicity against human HL-60 cells harboring wild type FLT3 assessed as inhibition of cell proliferation incubated for 72 hrs by MTT assay. Particulars: for IC50: HL-60, 72 h. Format: functional, cell-based.
A further experiment concerns MV4-11. In words: Cytotoxicity against human MV4-11 cells harboring FLT3-ITD mutant assessed as inhibition of cell proliferation incubated for 72 hrs by MTT assay. Format: functional, cell-based. Particulars: for IC50: MV4-11, 72 h. In general terms: Tetrazolium assays rely on reduction of a dye to a coloured formazan, in cell work by metabolically active cells.
The test system of experiment [3] is U-87 MG. Nature of the experiment: Cytotoxicity against human U87 cells harboring IDH1-R132H mutant assessed as inhibition of cell proliferation incubated for 72 hrs by MTT assay. Format: functional, cell-based. To be noted: U-87MG ATCC.
The subject of experiment [4] is U-87 MG. In words: Cytotoxicity against human U87 cells harboring wild type IDH1 assessed as inhibition of cell proliferation incubated for 72 hrs by MTT assay. To be noted: U-87MG ATCC. The class given is functional, cell-based.

In brackets after ≈: the same amount, converted by molar mass. Activity calls are given as the source filed them. The rule behind the calls is not given here.

A word on the MIC: it is the lowest concentration found to suppress growth. One may read the IC50 as the concentration that gives 50% inhibition.

For `CC(=O)/C=C\C(=O)/C(C)=C/C=C/C(C)=C1/C(=O)C[C@H]2[C@@]3(C)CCC(=O)C(C)(C)[C@@H]3CC[C@]12C`, the outcome in the experiment with Staphylococcus aureus was Active. For the same molecule, in the experiment with Streptococcus pyogenes, the MIC turned out to be 0.1 µg/mL (≈ 0.222 µM).

In the case of `CC(=O)O[C@H]1CC[C@@]2(C)[C@@H](CC[C@]3(C)/C(=C(C)/C=C/C=C(\C)[C@H]4CC=C(C)C(=O)O4)C(=O)C[C@@H]23)C1(C)C`, the IC50 worked out at 2490 nM in the experiment with HCT-116 [1], 42 nM in the experiment with HL-60 and 280 nM with MV4-11. Besides, the result in the experiment on HCT-116 [2] was Active.

Consider `CC(=O)/C=C/C(=O)/C(C)=C/C=C/C(C)=C1/C(=O)C[C@H]2[C@@]3(C)CCC(=O)C(C)(C)[C@@H]3CC[C@]12C`, for which, in the experiment with Staphylococcus aureus, the outcome was Active. In addition, in the experiment on Streptococcus pyogenes, the MIC came to 1.8 µg/mL (≈ 3.99 µM).

Take `CC(=O)/C=C\C(=O)/C(C)=C/C=C/C(C)=C1/C(=O)C[C@H]2[C@@]3(C)CC[C@H](OC(C)=O)C(C)(C)[C@@H]3CC[C@]12C`: the result in the experiment with Staphylococcus aureus was Active. Besides, in the experiment on Streptococcus pyogenes, the MIC was 1 µg/mL (≈ 2.02 µM).

As for `CC1=CC[C@@H](/C(C)=C/C=C/C(C)=C2\C(=O)C[C@H]3[C@@]4(C)CCC(=O)C(C)(C)[C@@H]4CC[C@]23C)OC1=O`, the result with HCT-116 [1], in the experiment on U-87 MG [3], with HCT-116 [2], with HL-60, with MV4-11 and with U-87 MG [4] was Active.

Consider `CC(=O)/C=C/C(=O)/C(C)=C/C=C/C(C)=C1\C(=O)C[C@H]2[C@@]3(C)CCC(=O)C(C)(C)[C@@H]3CC[C@]12C` [GEODITIN A], for which the outcome in the experiment with Staphylococcus aureus was Active. For the same molecule, in the experiment with Streptococcus pyogenes, the MIC amounted to 0.9 µg/mL (≈ 2 µM).

For `CC(=O)/C=C\C(=O)/C(C)=C/C=C/C(C)=C1\C(=O)C[C@H]2[C@@]3(C)CCC(=O)C(C)(C)[C@@H]3CC[C@]12C` [ISOGEODITIN A], the result in the experiment on Staphylococcus aureus was Active. For the same molecule, in the experiment on Streptococcus pyogenes, the MIC amounted to 0.4 µg/mL (≈ 0.888 µM).

Consider `CC(=O)/C=C\C(=O)/C(C)=C/C=C/C(C)=C1\C(=O)C[C@H]2[C@@]3(C)CC[C@H](OC(C)=O)C(C)(C)[C@@H]3CC[C@]12C` [ISOGEODITIN B], for which, in the experiment with Streptococcus pyogenes, the MIC was determined as 1.9 µg/mL (≈ 3.84 µM).

`C\C(=C/C=C/C(C)=C1/C(=O)C[C@H]2[C@@]3(C)CCC(=O)C(C)(C)[C@@H]3CC[C@]12C)c1ccc(C)c(=O)o1` [STELLETIN A]: the result with HCT-116 [1], with U-87 MG [3], in the experiment on HCT-116 [2], in the experiment on HL-60, in the experiment on MV4-11 and in the experiment with U-87 MG [4] was Active. Moreover, in the experiment with Streptococcus pyogenes, the MIC turned out to be 1.8 µg/mL (≈ 3.89 µM).

On to `CC(=O)O[C@H]1CC[C@@]2(C)[C@@H](CC[C@]3(C)\C(=C(C)/C=C/C=C(\C)c4ccc(C)c(=O)o4)C(=O)C[C@@H]23)C1(C)C` [STELLETTIN C], for which the outcome in the experiment with HCT-116 [1], in the experiment with U-87 MG [3], in the experiment on HCT-116 [2], with HL-60, with MV4-11 and with U-87 MG [4] was Active. Further, the minimal inhibitory concentration (MIC) in the experiment on Streptococcus pyogenes worked out at 2 µg/mL (≈ 3.95 µM).

With `CC(=O)O[C@H]1CC[C@@]2(C)[C@@H](CC[C@]3(C)/C(=C(C)/C=C/C=C(\C)c4ccc(C)c(=O)o4)C(=O)C[C@@H]23)C1(C)C` [STELLETTIN D], the half-inhibitory concentration (IC50) came to 2350 nM with HCT-116 [1], 15 nM in the experiment with HL-60 and 390 nM with MV4-11. The outcome in the experiment with U-87 MG [3], in the experiment on HCT-116 [2] and in the experiment with U-87 MG [4] was Active. For the same molecule, the MIC in the experiment with Streptococcus pyogenes turned out to be 2 µg/mL (≈ 3.95 µM).

These data come from ChEMBL document CHEMBL5143727, “Cytotoxic and Antibacterial Isomalabaricane Terpenoids from the Sponge Rhabdastrella globostellata” (J Nat Prod, 2022).
